Data on one substance can be found in US20090298956A1, “SELF-PRESERVED EMULSIONS” (priority 2008, published 2009).

Holding throughout (format): cell-based
One test relates to S. aureus. Put plainly: Preservative efficacy test (PET), log reduction of S. aureus. As to conditions: 24 hours, PET Screen International. As to the method:
(§1) The antimicrobial activity and stability of the formulations shown in Table 1A below, which contain either 0.1 or 0.2 (w/v %) of Compound 1 were evaluated. Table 1A also contains an emulsion formulation (Formulation C) consisting of Cyclosporin and Compound 1. Table 1B constitutes overall standard preservative efficacy test (PET Screen International) results along with the results of a visual assessment of physical stability of the emulsions. […] Histograms for Formulation B, showing the initial particle size measurements as well as 60 weeks, can be seen in FIGS. 1A & 1B. Similarly, histograms for Formulation C, containing 0.05% Cyclosporin, showing the initial particle size measurements as well as at 62 weeks, can be seen in FIGS. 2A & 2B. […] The microbiological evaluation was conducted by determining the extent to which the emulsions reduced an initial population of about 10^6 cfu/mL microorganisms over time. The abbreviation “cfu” means colony forming unit. […] Overall EPA requirement of preservation in all tested formulations was achieved. The microbiology results are provided in greater detail in Table 1C, where the results of the evaluation of five microorganisms are provided.

Another test relates to P. aeruginosa. Nature of the test: Preservative efficacy test (PET), log reduction of P. aeruginosa. As to conditions: 24 hours, PET Screen International. As for the experimental part:
as §1

Another test relates to E. coli. Put plainly: Preservative efficacy test (PET), log reduction of E. coli. As to conditions: 24 hours, PET Screen International. As to the method: as §1
Another test concerns C. albicans. Nature of the test: Preservative efficacy test (PET), log reduction of C. albicans. The conditions noted are these: 7 days, PET Screen International. As to the method: as §1

Regarding “sodium coco-diimonium chloride phosphate [Compound 1]”, the log reductions in the test with S. aureus (0.1% Compound 1 emulsion), in the test with S. aureus (0.2% Compound 1 emulsion), in the test on P. aeruginosa (0.1% Compound 1 emulsion), with P. aeruginosa (0.2% Compound 1 emulsion), in the test with E. coli (0.1% Compound 1 emulsion) and in the test with E. coli (0.2% Compound 1 emulsion) was 5 log each time. Also, the log reductions result with C. albicans (0.1% Compound 1 emulsion) and in the test with C. albicans (0.2% Compound 1 emulsion) was “approximately 5 log” each time.
